In the supplement of paper PMC10307832:

Compound: CC1=C(C=CC(=C1)[N+](=O)[O-])NS(=O)(=O)C2=C(C=CC(=C2)Cl)Cl [FH535]
Assay: relative viability (nuclei count vs DMSO), 5 days (fraction); higher = more cells survive
Method in brief: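 Cells of lung cancer lines were placed in 1536-well plates and kept overnight at 37 °C. Pinning then delivered five library-drug doses (not always all listed), spaced by √10, onto plates anchored with vehicle, and the cells were left 5 days without changing medium. One step fixed, permeabilised and stained them with Hoechst, and MetaXpress counted nuclei in 4× images. Viability, as a median over plates, is treated-well nuclei divided by vehicle-well nuclei, with acceptance only at control CV below 25% and at least one doubling.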

| Cell Line | relative viability (0.04 µM) | relative viability (0.1265 µM) | relative viability (0.4 µM) | relative viability (1.265 µM) |
| --- | --- | --- | --- | --- |
| 201T | 0.976 | 1 | 0.884 | 0.862 |
| A549 | 0.878 | 0.887 | 0.928 | 0.789 |
| A-427 | 0.908 | 1.05 | 0.926 | 0.819 |
| ABC-1 | 1 | 0.858 | 0.812 | 0.774 |
| BEN | 0.92 | 0.946 | 0.862 | 0.653 |
| CAL-12T | 0.989 | 0.977 | 0.819 | 0.591 |
| COR-L23 | 0.98 | 1.03 | 0.842 | 0.573 |
| COR-L 105 | 0.882 | 1.08 | 0.76 | 0.82 |
| ChaGo-K-1 | 0.91 | 1.06 | 0.887 | 0.775 |
| EKVX | 0.987 | 0.951 | 0.905 | 0.773 |
| EMC-BAC-2 | 0.808 | 0.953 | 0.913 | 0.839 |
| EPLC-272H | 0.838 | 0.934 | 0.796 | 0.774 |
| H3255 | 0.953 | 0.945 | 0.955 | 0.745 |
| HARA | 0.855 | 0.876 | 0.779 | 0.711 |
| HCC-15 | 0.928 | 0.998 | 0.841 | 0.786 |
| HCC-44 | 0.994 | 0.943 | 0.836 | 0.747 |
| HCC-78 | 0.927 | 1 | 0.951 | 0.865 |
| HCC-366 | 1 | 1.05 | 0.973 | 0.992 |
| HCC-827 | 0.956 | 1.04 | 0.936 | 0.767 |
| HOP-62 | 0.89 | 0.919 | 0.93 | 0.853 |
| IA-LM | 0.963 | 0.864 | 0.868 | 0.713 |
| LC-2-ad | 0.894 | 0.936 | 0.857 | 0.71 |
| LCLC-97TM1 | 0.809 | 0.913 | 0.844 | 0.913 |
| LCLC-103H | 0.919 | 1.03 | 0.901 | 0.753 |
| LK-2 | 0.919 | 0.983 | 0.996 | 1.17 |
| LOU-NH91 | 0.936 | 1.07 | 0.742 | 0.472 |

| Cell Line | relative viability (0.04 µM) | relative viability (0.1265 µM) | relative viability (0.4 µM) | relative viability (1.265 µM) |
| --- | --- | --- | --- | --- |
| LU99A | 0.812 | 0.973 | 0.854 | 0.811 |
| LXF-289 | 0.99 | 0.989 | 0.913 | 0.851 |
| NCI-H23 | 0.635 | 1.01 | 0.967 | 0.687 |
| NCI-H322M | 0.92 | 0.93 | 0.937 | 0.761 |
| NCI-H358 | 0.853 | 1.11 | 0.814 | 0.674 |
| NCI-H441 | 0.929 | 1.14 | 1.14 | 0.84 |
| NCI-H460 | 0.997 | 1.03 | 0.935 | 0.699 |
| NCI-H520 | 0.963 | 1.04 | 0.934 | 0.915 |
| NCI-H522 | 0.875 | 0.894 | 0.856 | 0.825 |
| NCI-H596 | 0.926 | 0.865 | 0.975 | 0.908 |
| NCI-H647 | 0.872 | 1.05 | 0.906 | 0.801 |
| NCI-H650 | 0.82 | 0.913 | 0.846 | 0.687 |
| NCI-H661 | 1 | 1.01 | 0.955 | 0.637 |
| NCI-H727 | 0.699 | 0.814 | 0.706 | 0.797 |
| NCI-H838 | 0.962 | 0.96 | 0.851 | 0.777 |
| NCI-H1355 | 0.942 | 0.981 | 0.917 | 0.681 |
| NCI-H1395 | 0.683 | 0.929 | 0.909 | 0.62 |
| NCI-H1437 | 0.976 | 0.934 | 0.731 | 0.422 |
| NCI-H1563 | 0.954 | 0.892 | 0.995 | 0.771 |
| NCI-H1650 | 0.893 | 0.966 | 0.881 | 0.717 |
| NCI-H1651 | 0.92 | 0.988 | 0.964 | 0.727 |
| NCI-H1666 | 0.986 | 0.976 | 0.954 | 0.93 |
| NCI-H1703 | 0.958 | 0.848 | 0.929 | 0.768 |
| NCI-H1734 | 0.724 | 1.07 | 0.945 | 0.821 |
| NCI-H1755 | 1 | 1.05 | 0.944 | 0.953 |
| NCI-H1792 | 0.874 | 0.958 | 0.789 | 0.62 |

| Cell Line | relative viability (0.04 µM) | relative viability (0.1265 µM) | relative viability (0.4 µM) | relative viability (1.265 µM) |
| --- | --- | --- | --- | --- |
| NCI-H1793 | 0.825 | 0.747 | 0.762 | 0.642 |
| NCI-H1915 | 0.863 | 1.03 | 0.906 | 0.792 |
| NCI-H1944 | 0.862 | 0.993 | 0.928 | 0.818 |
| NCI-H1975 | 0.919 | 0.965 | 0.87 | 0.82 |
| NCI-H1993 | 0.902 | 0.967 | 0.838 | 0.635 |
| NCI-H2009 | 0.964 | 1.01 | 0.92 | 0.701 |
| NCI-H2023 | 0.901 | 1.06 | 0.988 | 0.841 |
| NCI-H2085 | 0.96 | 0.967 | 0.97 | 0.852 |
| NCI-H2087 | 1.05 | 1.01 | 0.845 | 0.683 |
| NCI-H2126 | 0.961 | 1.02 | 0.888 | 0.67 |
| NCI-H2170 | 0.904 | 1.02 | 0.963 | 0.858 |
| NCI-H2228 | 0.884 | 1.01 | 0.985 | 0.896 |
| NCI-H2342 | 0.96 | 0.964 | 1.01 | 0.76 |
| NCI-H2347 | 0.986 | 0.974 | 1.02 | 0.842 |
| NCI-H2405 | 0.922 | 0.967 | 0.882 | 0.713 |
| NCI-H3122 | 0.933 | 0.995 | 0.978 | 0.885 |
| PC-3 [JPC-3] | 0.971 | 1.04 | 0.906 | 0.621 |
| PC-14 | 1.01 | 1.06 | 0.989 | 0.955 |
| RERF-LC-KJ | 0.947 | 0.998 | 0.962 | 0.808 |
| SK-LU-1 | 1.03 | 1.02 | 0.945 | 0.758 |
| SK-MES-1 | 0.986 | 1.01 | 0.963 | 0.776 |
| SW 900 | 0.962 | 0.754 | 0.789 | 0.743 |
| SW 1573 | 0.908 | 1.01 | 0.899 | 0.836 |
| UMC-11 | 0.94 | 0.877 | 0.9 | 0.911 |
